Test: A: acetonitrile + 0.1% formic acid + 10 mM ammonium formate; B: 5% water + 95% acetonitrile + 0.1% formic acid + 10 mM ammonium formate; gradient (min/%B) 0/10 2/10 22/100 27/100 27.1/10
Details: stereoisomer not certain

CC(C)C[C@H](N)C(=O)O [L-Leucine]
LC retention time: 5.01 min

C=C(C)C1CCC2=CC(=O)CC(C)C2(C)C1 (single isomer, unassigned; (+)) [(+)-Nootkatone]
LC retention time: 0.417 min

CCN(CC)CC#CCOC(=O)C(O)(c1ccccc1)C1CCCCC1 (centres undefined) [Oxybutynin]
LC retention time: 0.847 min

O=c1cc(CO)occ1O [Kojic acid]
LC retention time: 1.22 min

CCN(CC)CCNC(=O)c1ccc(N)cc1 [Procainamide]
LC retention time: 2.3 min

NC(=O)c1ncn(C2OC(CO)C(O)C2O)n1 (centres undefined) [Ribavirin]
LC retention time: 3.11 min

NC(=O)c1ccccc1O [Salicylamide]
LC retention time: 0.448 min

CC(C)[C@H](N)C(=O)O [L-Valine]
LC retention time: 5.92 min

O=P(O)(O)OCC1OC(O)C(O)C1O [D-Ribose 5-phosphate]
LC retention time: 7.12 min

CC12CCC(=O)C=C1CCC1C2CCC2(C)C1CCC2(O)C(=O)CO (centres undefined) [Cortexolone]
LC retention time: 0.459 min

NC(Cc1cccc(O)c1)C(=O)O (racemic) [DL-m-Tyrosine]
LC retention time: 5.38 min

C=C1CCC2CC1C2(C)C (stereo not drawn) [beta-Pinene]
LC retention time: 0.452 min

NCC(=O)NCC(=O)O [Glycyl-glycine]
LC retention time: 7.02 min

CCCC(NC(C)C(=O)N1C(C(=O)O)CC2CCCCC21)C(=O)OCC (centres undefined) [Perindopril erbumine]
LC retention time: 0.553 min

Cn1cnc2c1c(=O)[nH]c(=O)n2C [Theobromine]
LC retention time: 0.687 min

COC(=O)C(Cc1ccccc1)NC(=O)C(N)CC(=O)O (centres undefined) [Aspartame]
LC retention time: 4 min

C[n+]1cccc(C(=N)[O-])c1 [1-Methylnicotinamide]
LC retention time: 4.68 min

CCCCCCCCCCCCCCCC(=O)OCC(COP(=O)(O)O)OC(=O)CCCCCCCCCCCCCCC (centres undefined) [1,2-Dipalmitoyl-sn-glycero-3-phosphate]
LC retention time: 2.45 min

Cc1ncc(COP(=O)(O)O)c(C=O)c1O [Pyridoxal 5'-phosphate]
LC retention time: 5.97 min

CC1CNC(=O)NC1=O (centres undefined) [5,6-Dihydro Thymine]
LC retention time: 0.621 min

COC(=O)C1C2CC3c4[nH]c5cc(OC)ccc5c4CCN3CC2CC(OC(=O)c2cc(OC)c(OC)c(OC)c2)C1OC (centres undefined) [Reserpine]
LC retention time: 0.769 min

OC[C@H]1O[C@@H](O[C@H]2[C@H](O)[C@@H](O)[C@H](O)O[C@@H]2CO)[C@H](O)[C@@H](O)[C@H]1O [beta-Lactose]
LC retention time: 6.75 min

NC(N)=Nc1nc(CSCCC(N)=NS(N)(=O)=O)cs1 [Famotidine]
LC retention time: 2.9 min

CCOC(=O)C1=C(COCCN)NC(C)=C(C(=O)OC)C1c1ccccc1Cl (centres undefined) [Amlodipine]
LC retention time: 2.02 min

Nc1nc2ncc(CNc3ccc(C(=O)NC(CCC(=O)O)C(=O)O)cc3)nc2c(=O)[nH]1 (centres undefined) [Folic acid]
LC retention time: 5.87 min

O=C1CC[C@@H](C(=O)O)N1 [L-Pyroglutamic acid]
LC retention time: 6.81 min

CN(C)CCCN1c2ccccc2CCc2ccccc21 [Imipramine]
LC retention time: 0.939 min

O=C(O)C(O)Cc1c[nH]c2ccccc12 (racemic) [DL-Indole-3-lactic acid]
LC retention time: 0.968 min

CC(CCC(=O)NCCS(=O)(=O)O)C1CCC2C3CCC4CC(O)CCC4(C)C3CC(O)C12C (centres undefined) [Taurodeoxycholic acid]
LC retention time: 2.71 min

NC(=O)NCCC[C@H](N)C(=O)O [L-Citrulline]
LC retention time: 6.76 min

O=C(O)COCCN1CCN(C(c2ccccc2)c2ccc(Cl)cc2)CC1 (centres undefined) [Cetirizine]
LC retention time: 1.33 min

O=c1[nH]c(=O)n(C2CC(O)C(CO)O2)cc1I (single isomer, unassigned; (+)) [(+)-5-Iodo-2'-deoxyuridine]
LC retention time: 0.729 min

Cn1c(=O)[nH]c2[nH]c(=O)[nH]c2c1=O [1-Methyluric acid]
LC retention time: 3.32 min

NC(=O)CCCCC1CCSS1 (racemic) [DL-6,8-Thioctamide]
LC retention time: 0.473 min

O=C(O)c1cccnc1 [Nicotinic acid]
LC retention time: 2.44 min

Nc1ccn(C2CC(O)C(CO)O2)c(=O)n1 (centres undefined) [2'-Deoxycytidine]
LC retention time: 3.51 min

C=C1CC23CCC4C(C)(C(=O)OC5OC(CO)C(O)C(O)C5O)CCCC4(C)C2CCC1(OC1OC(CO)C(O)C(O)C1OC1OC(CO)C(O)C(O)C1O)C3 (centres undefined) [Stevioside]
LC retention time: 4.85 min

Nc1ccc(S(=O)(=O)c2ccc(N)cc2)cc1 [4,4'-Diaminodiphenyl sulfone]
LC retention time: 0.441 min

Cc1ccc(C(C)C)cc2c(C)ccc1-2 [Guaiazulene]
LC retention time: 0.402 min

Cn1cnc(=N)c2[nH]cnc21 [3-Methyladenine]
LC retention time: 2.75 min

CCCC(=O)OCC(COC(=O)CCC)OC(=O)CCC [Glycerol Tributyrate]
LC retention time: 0.412 min

O=C(O)c1c[nH]c2ccccc12 [Indole-3-carboxylic acid]
LC retention time: 0.506 min

CC(NC(C)(C)C)C(=O)c1cccc(Cl)c1 (centres undefined) [Bupropion]
LC retention time: 0.963 min

Cn1cncc1C[C@H](N)C(=O)O [3-Methyl-L-histidine]
LC retention time: 7.74 min

NC12CC3CC(CC(C3)C1)C2 [1-Aminoadamantane]
LC retention time: 2.36 min

CNCC(O)c1ccc(O)cc1 (centres undefined) [Synephrine]
LC retention time: 3.2 min

OCC(O)C(O)C(O)CO (centres undefined) [Xylitol]
LC retention time: 5.38 min

O=Cc1ccc(O)cc1 [4-Hydroxybenzaldehyde]
LC retention time: 3.98 min

CCCc1nc(C)c2c(=O)[nH]c(-c3cc(S(=O)(=O)N4CCN(CC)CC4)ccc3OCC)nn12 [Vardenafil]
LC retention time: 1.08 min

CCOC(=O)CC(=O)OCC [Diethyl malonate]
LC retention time: 0.43 min

Cn1c[n+](C2OC(CO)C(O)C2O)c2nc(N)nc([O-])c21 (centres undefined) [7-Methylguanosine]
LC retention time: 5.34 min

O=c1cc(-c2ccc(O)cc2)oc2cc(O)cc(O)c12 [Apigenin]
LC retention time: 0.481 min

COc1cc(CC(=O)O)ccc1O [4-Hydroxy-3-methoxyphenylacetic Acid]
LC retention time: 0.535 min

CN(C)Cc1c[nH]c2ccccc12 [Gramine]
LC retention time: 1.61 min

Nc1nc2c(ncn2CCC(CO)CO)c(=O)[nH]1 [Penciclovir]
LC retention time: 4.51 min

O=C(O)c1ccncc1 [Isonicotinic acid]
LC retention time: 3.05 min

NCCC(=O)NC(Cc1cnc[nH]1)C(=O)O [L-Carnosine]
LC retention time: 7.75 min

OCCNCCO [Diethanolamine]
LC retention time: 5.23 min

CCCCCCC(N)C(=O)O (centres undefined) [2-Aminooctanoic acid]
LC retention time: 4.11 min

O=C(O)C=CCCCCCCCCC(=O)O [Traumatic acid]
LC retention time: 0.561 min

CC1OC(OCC2OC(Oc3c(-c4ccc(O)c(O)c4)oc4cc(O)cc(O)c4c3=O)C(O)C(O)C2O)C(O)C(O)C1O (centres undefined) [Rutin]
LC retention time: 4.42 min

NCCc1c[nH]c2ccc(O)cc12 [Serotonin]
LC retention time: 3.29 min

CC(C)[C@H](NC(=O)CN)C(=O)O [Glycyl-L-valine]
LC retention time: 6.02 min

NC(N)=NC(=O)c1nc(Cl)c(N)nc1N [Amiloride]
LC retention time: 2.91 min

CCOC(=O)CC(C)=O [Ethyl acetoacetate]
LC retention time: 0.418 min

NCCCCC(NC(CCc1ccccc1)C(=O)O)C(=O)N1CCCC1C(=O)O (centres undefined) [Lisinopril]
LC retention time: 6.87 min

COC(=O)CCCC(=O)O [Monomethyl glutarate]
LC retention time: 0.562 min

CNCCC(Oc1ccc(C(F)(F)F)cc1)c1ccccc1 (centres undefined) [Fluoxetine]
LC retention time: 0.978 min

Cc1c[nH]c2ccccc12 [3-Methylindole]
LC retention time: 0.412 min

Cc1ncc(CO)c(CN)c1O [Pyridoxamine]
LC retention time: 6.5 min

CN1C(=O)CCC1c1cccnc1 [(S)-Cotinine]
LC retention time: 0.622 min

CC(=O)Nc1ccc(O)cc1 [4-Acetamidophenol]
LC retention time: 0.477 min

O=C(O)/C=C/c1ccccc1 [trans-Cinnamic acid]
LC retention time: 0.485 min

O=C(O)CCCCC1SCC2NC(=O)NC21 (centres undefined) [Biotin]
LC retention time: 1.17 min

O=C(O)c1ccccn1 [2-Picolinic acid]
LC retention time: 3.08 min

N[C@@H](Cc1cc(I)c(Oc2ccc(O)cc2)c(I)c1)C(=O)O [3,5-Diiodo-L-Thyronine]
LC retention time: 3.63 min

NC(CCCC(N)C(=O)O)C(=O)O (centres undefined) [2,6-Diaminopimelic Acid]
LC retention time: 8.06 min

O=C(O)CNC(=O)c1ccc(O)cc1 [2-[(4-Hydroxyphenyl)formamido]acetic acid]
LC retention time: 3.64 min

COc1ccc(C2Sc3ccccc3N(CCN(C)C)C(=O)C2OC(C)=O)cc1 (centres undefined) [Diltiazem]
LC retention time: 1.04 min

CC(C)C[C@H](N)C(=O)N[C@@H](C)C(=O)O [L-Leucyl-L-alanine]
LC retention time: 5.82 min

CCC(C)C(=O)OC1CC(C)C=C2C=CC(C)C(CCC3CC(O)CC(=O)O3)C21 (centres undefined) [Lovastatin]
LC retention time: 0.419 min

OCC1OC(OCC2OC(O)C(O)C(O)C2O)C(O)C(O)C1O (centres undefined) [Melibiose]
LC retention time: 7.08 min

O=c1[nH]cnc2nc[nH]c12 [Hypoxanthine]
LC retention time: 2.29 min

O=c1cc(-c2ccc(O)c(O)c2)oc2cc(O)cc(O)c12 [Luteolin]
LC retention time: 0.593 min

OCC1OC(OC2(CO)OC(CO)C(O)C2O)C(O)C(O)C1O (centres undefined) [Sucrose]
LC retention time: 6.27 min

COC(=O)Cc1c[nH]c2ccccc12 [Methyl 3-indolyacetate]
LC retention time: 0.431 min

NC(CCS)C(=O)O (racemic) [DL-Homocysteine]
LC retention time: 5.69 min

CCOC(=O)C1=CC(OC(CC)CC)C(NC(C)=O)C(N)C1 (centres undefined) [Oseltamivir]
LC retention time: 2.47 min

NC(N)=NCCCC(=O)O [4-Guanidinobutyric acid]
LC retention time: 5.73 min

Nc1nc2c(c(=O)[nH]1)N(C=O)C(CNc1ccc(C(=O)NC(CCC(=O)O)C(=O)O)cc1)CN2 (centres undefined) [Folinic acid]
LC retention time: 5.94 min

O=C(O)CN(CCN(CC(=O)O)CC(=O)O)CC(=O)O [Ethylenediaminetetraacetic acid]
LC retention time: 6.91 min

Cc1c[nH]c(=O)[nH]c1=O [Thymine]
LC retention time: 0.793 min

CN(C)CC(=O)O [N,N-Dimethylglycine]
LC retention time: 5.8 min

NC(COP(=O)(O)O)C(=O)O (centres undefined) [Phosphoserine]
LC retention time: 7.9 min

From the RepoRT retention time repository
